SMILES strings stand for the structures. Values joined by “and” are separate entries in the source; they are usually repeats but may differ in a detail not shown here. Identical values can stand only once. Counter-ions that a name gives are not always drawn.

The values that follow come from US9303015B2, “Heteroaryl linked quinolinyl modulators of RORγt” (Janssen Pharmaceutica NV, priority 2012, dated 2016).

The target in assay [1] is human RORγt ligand binding domain (RORγt LBD) (Homo sapiens (Human), UniProt P51449). Briefly: RORγt ThermoFluor assay (thermal shift, binding affinity). To be noted: estimated from thermal shift concentration response. The procedure:
This approach is applicable to a wide variety of systems, and rigorous in theoretical interpretation through quantitation of equilibrium binding constants (KD).
The shift in the melting point described as a ΔTm is proportional to the concentration and affinity of the ligand.
ThermoFluor® experiments were carried out using instruments owned by Janssen Research and Discovery, L.L.C. through its acquisition of 3-Dimensional Pharmaceuticals, Inc. 1,8-ANS (Invitrogen) was used as a fluorescent dye. Protein and compound solutions are dispensed into black 384-well polypropylene PCR microplates (Abgene) and overlayed with silicone oil (1 μL, Fluka, type DC 200) to prevent evaporation.
Bar-coded assay plates are robotically loaded onto a thermostatically controlled PCR-type thermal block and then heated at a typical ramp-rate of 1° C./min for all experiments. Fluorescence was measured by continuous illumination with UV light (Hamamatsu LC6) supplied via fiber optic and filtered through a band-pass filter (380-400 nm; >60D cutoff). Fluorescence emission of the entire 384-well plate was detected by measuring light intensity using a CCD camera (Sensys, Roper Scientific) filtered to detect 500±25 nm, resulting in simultaneous and independent readings of all 384 wells. Images were collected at each temperature, and the sum of the pixel intensity in a given area of the assay plate was recorded versus temperature. Reference wells contained RORγt without compounds, and the assay conditions were as follows: • 0.065 mg/mL RORγt • 60 μM 1,8-ANS • 100 mM Hepes, pH 7.0 • 10 mM NaCl • 2.5 mM GSH • 0.002% Tween-20
Project compounds were arranged in a pre-dosed mother plate (Greiner Bio-one) wherein compounds are serially diluted in 100% DMSO by 1:2 from a high concentration of 10 mM over 12 columns within a series (column 12 is a reference well containing DMSO, no compound). The compounds were robotically dispensed directly into assay plates (1x=[…]) using a Hummingbird capillary liquid handling instrument (Digilab). Following compound dispense, protein and dye in buffer was added to achieve the final assay volume of 3 μL, followed by 1 μL of silicone oil.

The next assay deals with human RORγt LBD (Homo sapiens (Human), UniProt P51449). Put plainly: RORγt reporter assay (GAL4-RORγt LBD luciferase, HEK293T cells). In kind it is cell-based. Conditions: for IC50 / RORγt reporter Assay, % inhibition @ 6 μM: HEK293T cells; for IC50: 24 hours compound treatment; for inhibition at 6 µM: HEK-293T, read-out: RORγt reporter Assay, % inhibition @ 6 μM, 6 μM, HEK293T cells. An excerpt:
A reporter assay was used to test functional activity of RORγt modulatory compounds on transcriptional activation driven by the RORγt LBD. Cells used in the assay were co-transfected with two constructs. The first construct, pBIND-RORγt LBD, contained the wild type human RORγt LBD fused to the DNA binding domain of the GAL4 protein. The second construct, pGL4.31 (Promega Cat no. C935A), contained multiple GAL4 responsive DNA elements upstream of firefly luciferase. […] The mutant construct was called pBIND-RORγt-AF2. […] The pBIND vector contains the GAL4 DNA Binding Domain (GAL4 DBD) and the renilla luciferase gene under control of the SV40 promoter. Renilla luciferase expression serves as a control for transfection efficiency and cell viability.
The reporter assay was performed by transiently transfecting HEK293T cells with 5 μg of pBIND-RORγt LBD or pBIND-RORγt LBD-AF2 and 5 μg pGL4.31 (Promega Cat no. C935A) using Fugene 6 (Invitrogen Cat no. E2691) at a 1:6 ratio of DNA: Fugene 6 in a T-75 flask in which cells were at least 80% confluent. Twenty four hours after bulk transfection, cells were plated into 96-well plates at 50,000 cells/well in phenol-red free DMEM containing 5% Lipid Reduced FCS and Pen/Strep. Six hours after plating, cells were treated with compounds for 24 hours. Media was removed and cells were lysed with 50 μL 1x Glo Lysis Buffer (Promega). Dual Glo Luciferase Reagent (50 μL/well) was then added and firefly luciferase luminescence was read on an Envision after a ten minute incubation. Finally, Stop and Glo reagent (50 μL/well) was added and renilla luciferase luminescence was read on an Envision after a ten minute incubation. To calculate the effect of compounds on RORγt activity, the ratio of firefly to renilla luciferase was determined and plotted against compound concentration. Agonist compounds increase RORγt-driven luciferase expression, and antagonist or inverse agonist compounds decrease luciferase expression.
In general terms: In a reporter assay the amount or activity of a reporter protein is the signal.

In assay [2] the test system is IL-17 production by CD4 T cells. Put plainly: Human Th17 assay. In kind it is cell-based. Conditions: IL-17 in supernatant after 3 days, human CD4+ T cells under Th17 differentiation. The source says: The human Th17 assay tests the effect of RORγt modulatory compounds on IL-17 production by CD4 T cells under conditions which favor Th17 differentiation.
Total CD4^+ T cells were isolated from the peripheral blood mononuclear cells (PBMC) of healthy donors using a CD4^+ T cell isolation kit II, following the manufacturer's instructions (Miltenyi Biotec). Cells were resuspended in a medium of RPMI-1640 supplemented with 10% fetal bovine serum, penicillin, streptomycin, glutamate, and β-mercaptoethanol and were added to 96-well plates at 1.5×10^5 per 100 μL per well. 50 μL of compound at titrated concentrations in DMSO were added into each well at final DMSO concentration at 0.2%. Cells were incubated for 1 hour, then 50 μL of Th17 cell differentiation medium was added to each well. The final concentrations of antibodies and cytokines (R&D Systems) in differentiation medium were: 3×10^6/mL anti-CD3/CD28 beads (prepared using human T cell activation/expansion kit, Miltenyi Biotec), 10 μg/mL anti-IL4, 10 μg/mL anti-IFNγ, 10 ng/mL IL113, 10 ng/mL IL23, 50 ng/mL IL6, 3 ng/mL TGFβ and 20 U/mL IL2. Cells were cultured at 37° C. and 5% CO2 for 3 days. Supernatants were collected and the accumulated IL-17 in culture was measured by using MULTI-SPOT® Cytokine Plate following manufacture's instruction (Meso Scale Discovery). The plate was read using Sector Imager 6000, and IL-17 concentration was extrapolated from the standard curve. The IC50s were determined by GraphPad.

human RORγt ligand binding domain (RORγt LBD), sequence (P51449 other isoform, or with tags, fused parts or gaps): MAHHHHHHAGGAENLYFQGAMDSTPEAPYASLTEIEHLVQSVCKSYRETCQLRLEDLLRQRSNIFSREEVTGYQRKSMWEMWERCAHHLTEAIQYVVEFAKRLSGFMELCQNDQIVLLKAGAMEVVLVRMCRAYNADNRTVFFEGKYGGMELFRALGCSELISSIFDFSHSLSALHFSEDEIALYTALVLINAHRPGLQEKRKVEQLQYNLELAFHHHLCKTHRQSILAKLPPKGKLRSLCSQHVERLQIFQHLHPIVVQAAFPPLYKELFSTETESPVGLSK
human RORγt LBD, sequence (P51449 258-518): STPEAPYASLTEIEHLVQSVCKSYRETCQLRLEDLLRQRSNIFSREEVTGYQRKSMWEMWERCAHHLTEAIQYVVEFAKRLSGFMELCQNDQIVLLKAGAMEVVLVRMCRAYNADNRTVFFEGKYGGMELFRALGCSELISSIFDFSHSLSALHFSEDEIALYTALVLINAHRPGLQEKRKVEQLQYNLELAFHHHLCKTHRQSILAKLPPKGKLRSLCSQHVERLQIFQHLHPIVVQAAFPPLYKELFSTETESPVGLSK

As usually defined, the Kd is the concentration at which binding is half-saturated. As a reminder, the IC50 is the point on the concentration scale where inhibition reaches its midpoint. Higher therefore signals lower potency. Broadly, the inhibition is the drop in the measured response relative to a control, in per cent. On to `CN(c1ccccc1)c1c(Cl)nc2ccc(C(O)(c3ccc(Cl)cc3)c3cncn3C)cc2c1Cl` (centres unmarked) [Example 38, (4-Chlorophenyl)(2,4-dichloro-3-(methyl(phenyl)amino)quinolin-6-yl)(1-methyl-1H-imidazol-5-yl)methanol], for which, in assay [1], the Kd was 0.035 µM. Moreover, at human RORγt LBD, the IC50 was 0.52 µM and ~1 µM; the inhibition at 6 µM stood at 85%.

Take `CCN(CC)c1nc2ccc(C(O)(c3ccc(C(F)(F)F)nc3)c3cncn3C)cc2c(C(F)(F)F)c1Oc1ccc(Cl)cc1` (single isomer, unassigned) [Example 27b, (3-(4-Chlorophenoxy)-2-(diethylamino)-4-(trifluoromethyl)quinolin-6-yl)(1-methyl-1H-imidazol-5-yl)(6-(trifluoromethyl)pyridin-3-yl)methanol]: the inhibition at 6 µM on human RORγt LBD was 92%. In assay [2], this compound had an IC50 of 0.051 µM.

Consider `CCOc1nc2ccc(C(O)(c3ccc(Cl)cc3)c3cncn3C)cc2c(Cl)c1Oc1ccccc1` (single isomer, unassigned) [Example 2a, (4-Chloro-2-ethoxy-3-phenoxyquinolin-6-yl)(4-chlorophenyl)(1-methyl-1H-imidazol-5-yl)methanol.TFA], for which, on human RORγt LBD, the “RORγt reporter Assay, % inhibition @ 6 μM” value was 88%. In assay [2], the IC50 stood at 0.61 µM.

Turning to `CCN(CC)c1nc2ccc(C(O)(c3ccc(C(F)(F)F)nc3)c3cncn3C)cc2c(Cl)c1Oc1ccccc1` (single isomer, unassigned) [Example 6c, (4-Chloro-2-(diethylamino)-3-phenoxyquinolin-6-yl)(1-methyl-1H-imidazol-5-yl)(6-(trifluoromethyl)pyridin-3-yl)methanol], on human RORγt LBD, the “RORγt reporter Assay, % inhibition @ 6 μM” value was 88%. Further, the IC50 in assay [2] stood at 0.21 µM.

Take `CCN(CC)c1nc2ccc(C(O)(c3ccc(Cl)cc3)c3cncn3C)cc2c(C(F)(F)F)c1Oc1ccc(Cl)cc1` (centres unmarked) [Example 26, (3-(4-Chlorophenoxy)-2-(diethylamino)-4-(trifluoromethyl)quinolin-6-yl)(4-chlorophenyl)(1-methyl-1H-imidazol-5-yl)methanol.TFA]: at human RORγt LBD, the inhibition at 6 µM came out at 89%. Also, the IC50 in assay [2] (Homo sapiens, CD4+ T, 72 h) amounted to 0.51 µM.

Regarding `CCOc1nc2ccc(C(O)(c3ccc(OC)nc3)c3cncn3C)cc2c(Cl)c1Oc1ccccc1` (single isomer, unassigned) [Example 10b], the “RORγt reporter Assay, % inhibition @ 6 μM” value on human RORγt LBD came out at 97%. Inhibition in assay [2] was half-maximal at 0.078 µM (IC50).

As for `CCOc1nc2ccc(C(O)(c3ccc(Cl)cc3)c3cncn3C)cc2c(Cl)c1Oc1ccccc1` (single isomer, unassigned) [Example 2c], at human RORγt LBD, the “RORγt reporter Assay, % inhibition @ 6 μM” value turned out to be 92%. In addition, the IC50 in assay [2] came to 0.21 µM.

`Cn1cncc1C(O)(c1ccc(Cl)cc1)c1ccc2nc(Cl)c(Oc3ccccc3)c(Cl)c2c1` (centres unmarked) [Example 1, (4-Chlorophenyl)(2,4-dichloro-3-phenoxyquinolin-6-yl)(1-methyl-1H-imidazol-5-yl)methanol]: the Kd in assay [1] is 0.11 µM. Also, on human RORγt LBD, the IC50 was determined as 0.67 µM and the inhibition at 6 µM is 86%.

Regarding `Cn1cncc1C(O)(c1ccc(C(F)(F)F)nc1)c1ccc2nc(N3CCC3)c(Oc3ccc(Cl)cc3)c(Cl)c2c1` (single isomer, unassigned) [Example 30b, (2-(Azetidin-1-yl)-4-chloro-3-(4-chlorophenoxy)quinolin-6-yl)(1-methyl-1H-imidazol-5-yl)(6-(trifluoromethyl)pyridin-3-yl)methanol], on human RORγt LBD, the inhibition at 6 µM worked out at 103%. Besides, the IC50 in assay [2] is 0.064 µM.

On to `CCN(CC)c1nc2ccc(C(O)(c3ccc(Cl)cc3)c3cncn3C)cc2c(Cl)c1Oc1ccccc1` (single isomer, unassigned) [Example 3c, (4-Chloro-2-(diethylamino)-3-phenoxyquinolin-6-yl)(4-chlorophenyl)(1-methyl-1H-imidazol-5-yl)methanol], for which the “RORγt reporter Assay, % inhibition @ 6 μM” value on human RORγt LBD was 104%. The compound further showed an IC50 in assay [2] (Homo sapiens, CD4+ T, 72 h) of 0.12 µM.

As for `CCN(CC)c1nc2ccc(C(O)(c3ccc(Cl)cc3)c3cncn3C)cc2c(Cl)c1Nc1ccccc1` (centres unmarked) [Example 45, (4-Chloro-2-(diethylamino)-3-(phenylamino)quinolin-6-yl)(4-chlorophenyl)(1-methyl-1H-imidazol-5-yl)methanol.TFA], in assay [1], the dissociation constant (Kd) is 0.27 µM. Also, at human RORγt LBD, inhibition was half-maximal at 0.81 µM (IC50) and the inhibition at 6 µM was determined as 91%.

Turning to `CCN(CC)c1nc2ccc(C(O)(c3ccc(OC)nc3)c3cncn3C)cc2c(Cl)c1Oc1ccccc1` (single isomer, unassigned) [Example 5c, (4-Chloro-2-(diethylamino)-3-phenoxyquinolin-6-yl)(6-methoxypyridin-3-yl)(1-methyl-1H-imidazol-5-yl)methanol], the “RORγt reporter Assay, % inhibition @ 6 μM” value at human RORγt LBD is reported as 104%. The compound also yielded an IC50 in assay [2] of 0.11 µM.

Regarding `CCN(CC)c1nc2ccc(C(O)(c3ccc(C(F)(F)F)nc3)c3cncn3C)cc2c(C(F)(F)F)c1Oc1ccc(Cl)cc1` (single isomer, unassigned) [Example 27c, (3-(4-Chlorophenoxy)-2-(diethylamino)-4-(trifluoromethyl)quinolin-6-yl)(1-methyl-1H-imidazol-5-yl)(6-(trifluoromethyl)pyridin-3-yl)methanol], the “RORγt reporter Assay, % inhibition @ 6 μM” value at human RORγt LBD is given as 89%. Besides, the IC50 in assay [2] amounted to 0.49 µM.

In the case of `CCN(CC)c1nc2ccc(C(O)(c3ccc(C(F)(F)F)nc3)c3cncn3C)cc2c(Cl)c1Oc1ccc(F)cc1` (single isomer, unassigned) [Example 9b], the “RORγt reporter Assay, % inhibition @ 6 μM” value at human RORγt LBD is on record as 81%. The IC50 in assay [2] was found to be 0.32 µM.

In the case of `CCOc1nc2ccc(C(O)(c3ccc(OC)nc3)c3cncn3C)cc2c(Cl)c1Oc1ccccc1` (single isomer, unassigned) [Example 10c], on human RORγt LBD, the “RORγt reporter Assay, % inhibition @ 6 μM” value amounted to 103%. Also, the IC50 in assay [2] was found to be 0.095 µM.

For the compound `CCN(CC)c1nc2ccc(C(O)(c3cccnc3)c3cccc(Cl)c3)cc2c(Cl)c1Oc1ccccc1` (centres unmarked) [Example 7, (4-Chloro-2-(diethylamino)-3-phenoxyquinolin-6-yl)(3-chlorophenyl)(pyridin-3-yl)methanol], the inhibition at 6 µM at human RORγt LBD was 91%. The same compound displayed an IC50 in assay [2] (Homo sapiens, CD4+ T, 72 h) of 0.11 µM.
